Reference: PubChem BioAssay (NCI)
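1) Cells in 96-well plates. 2) Compound, 48 h, 5 concentrations. 3) Linear interpolation between surrounding doses. 4) Unreached endpoint = highest concentration. Here, GI50 denotes the concentration required for 50% inhibition of growth. Definition used: TGI = concentration required for complete inhibition of growth.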

Assays:
Assay in all cases: NCI-60 cell line screen, 48 h
SNB-75 CNS = tested on: SNB-75 CNS
ACHN renal = tested on: ACHN renal
HOP-92 NSCLC = tested on: HOP-92 NSCLC
HS 578T breast = tested on: HS 578T breast
SF-295 CNS = tested on: SF-295 CNS
786-0 renal = tested on: 786-0 renal
SF-539 CNS = tested on: SF-539 CNS
SK-MEL-2 melanoma = tested on: SK-MEL-2 melanoma
HOP-62 NSCLC = tested on: HOP-62 NSCLC
TK-10 renal = tested on: TK-10 renal
RXF 393 renal = tested on: RXF 393 renal
NCI-H23 lung = tested on: NCI-H23 lung
CCRF-CEM leukemia = tested on: CCRF-CEM leukemia
SF-268 CNS = tested on: SF-268 CNS
NCI/ADR-RES ovarian = tested on: NCI/ADR-RES ovarian
SNB-19 CNS = tested on: SNB-19 CNS
BT-549 breast = tested on: BT-549 breast
MDA-MB-231 breast = tested on: MDA-MB-231 breast
U251 CNS = tested on: U251 CNS

Compound: CC(=O)Nc1ccc(NC(=O)Nc2cccc(-c3nc(-c4ccc(NC(=O)c5cccs5)cc4Cl)no3)c2)cc1C(F)(F)F
- GI50 (SNB-75 CNS): 1310 nM
- TGI (SNB-75 CNS): 2990 nM
- GI50 (ACHN renal): 2670 nM
- TGI (ACHN renal): 8410 nM
- GI50 (HOP-92 NSCLC): 1090 nM
- TGI (HOP-92 NSCLC): 3020 nM
- GI50 (HS 578T breast): 1830 nM
- TGI (HS 578T breast): 4550 nM
- GI50 (SF-295 CNS): 1460 nM
- TGI (SF-295 CNS): 2990 nM
- GI50 (786-0 renal): 2120 nM
- TGI (786-0 renal): 4760 nM
- GI50 (SF-539 CNS): 1450 nM
- TGI (SF-539 CNS): 2910 nM
- GI50 (SK-MEL-2 melanoma): 2060 nM
- TGI (SK-MEL-2 melanoma): 4150 nM
- GI50 (HOP-62 NSCLC): 718 nM
- TGI (HOP-62 NSCLC): 2250 nM
- GI50 (TK-10 renal): 2190 nM
- TGI (TK-10 renal): 5070 nM
- GI50 (RXF 393 renal): 1140 nM
- TGI (RXF 393 renal): 2450 nM
- GI50 (NCI-H23 lung): 1330 nM
- TGI (NCI-H23 lung): 3040 nM
- GI50 (CCRF-CEM leukemia): 1830 nM
- TGI (CCRF-CEM leukemia): > 100000 nM
- GI50 (SF-268 CNS): 1560 nM
- TGI (SF-268 CNS): 4080 nM
- GI50 (NCI/ADR-RES ovarian): 19700 nM
- TGI (NCI/ADR-RES ovarian): > 100000 nM
- GI50 (SNB-19 CNS): 692 nM
- TGI (SNB-19 CNS): 2670 nM
- GI50 (BT-549 breast): 1680 nM
- TGI (BT-549 breast): 4600 nM
- GI50 (MDA-MB-231 breast): 666 nM
- TGI (MDA-MB-231 breast): 2230 nM
- GI50 (U251 CNS): 354 nM
- TGI (U251 CNS): 1080 nM
